Several values for one entry are separate records, joined by “and”; a condition that tells them apart may be missing. Equal entries are not always repeated. Values belong to the molecule of their own block, whether it stands above or below them.
Test system: PDC 899932-113-R3-J6 complex spheroid viability
Experiment: Anticancer human tumor 899932-113-R3-J6-PDC patient-derived melanoma cell line growth inhibition [RAS]
Details: for viability, T/C: stronger effect = lower value
From the text: RAS pathway inhibitors in Combinations in Complex Spheroids
A high-throughput screen of multi-cell type tumor spheroids was designed to identify active combinations of RAS pathway inhibitors and targeted small molecules. Complex spheroids include a stromal component modeled by human endothelial cells (HUVEC) and fibroblasts modeled by human mesenchymal stem cells (MSCs). The concentration ranges selected for each drug and investigational agent were based upon clinically achievable concentrations if the clinical Cmax of the agent was known.
Compounds. The drugs and investigational agents: abemaciclib (NSC768073), cobimetinib (NSC768068), divarasib (GDC6063, NSC841802), docetaxel (NSC628503), GDC-1971 (RLY-1971, NSC841576), gemcitabine (NSC613327), inavolisib (NSC800729), ipatasertib (NSC767898), KB-0742 (NSC834161), MRTX-1133 (NSC836407), osimertinib (NSC779217), RMC-4630 (NSC839698), RMC-6236 (NSC851965), RMC-6291 (NSC852671), Ro-3306 (NSC812927), sapanisertib (NSC764658), SN-38 (NSC673596), staurosporine (NSC755774), SY5609 (NSC837396), and tovorafenib (DAY101, NSC766906), were obtained from the National Cancer Institute (NCI) Developmental Therapeutics Program Chemical Repository. The FDA-approved anticancer drug set is available from the NCI Developmental Therapeutics Program. […] The stock solutions were prepared in dimethyl sulfoxide (DMSO, Sigma-Aldrich, St. Louis, MO, cat. D2650) at 800-fold the tested concentration and stored at -70 degrees C prior to their use. All drugs and investigational agents were tested over a range starting from a high concentration at or near the clinical Cmax and decreasing in half-log increments. If the clinical Cmax for an agent had not been determined, the highest concentration tested was 10 microM.
Cell Culture. All cells were maintained in an incubator at 37 degrees C and 5% CO2 with 95% humidity. The PDC lines were cultured according to standard operating procedures established by the NCI PDMR. All PDCs were thawed and cultured in Matrigel-coated flasks prepared with a working solution of 1X Ham's F-12 nutrient mix, without supplementation (Invitrogen, Waltham, MA, cat. 11765054), 100 U/mL penicillin-streptomycin (Invitrogen, cat. 15140122), and 2.5% Matrigel (Corning Inc., Corning, NY, cat. 354248) for the first three passages. The 362531-283-R-J2-PDC and 782815-120-R-J1-PDC lines were cultured in 6C/Colon 1B media, which includes advanced DMEM/F-12 (Thermo Fisher Scientific, cat. 12634028), 10 mM HEPES (Thermo Fisher Scientific, cat. 15630080), 1X GlutaMAX supplement (Thermo Fisher Scientific, cat. 35050061), 0.1 mg/mL primocin (InvivoGen, San Diego, CA, cat. ant-pm-2), 10% defined fetal bovine serum, heat inactivated (HyClone Laboratories Inc., Logan, UT, cat. SH30070.03HI), 50% L-WRN conditioned media (ATCC, cat. CRL-3276), 1.25 mM N-Acetyl-L-cysteine (Sigma-Aldrich, cat. A9165), 10 mM nicotinamide (Sigma-Aldrich, cat. N0636), 1X B-27 supplement (Thermo Fisher Scientific, cat. 17504044), 1X N-2 supplement (Thermo Fisher Scientific, cat. 17502048), 50 ng/mL human EGF (Thermo Fisher Scientific, cat. PHG0311), and 10 microM Y-27632 dihydrochloride (Tocris Bioscience, cat. 1254). The K12877-001-R-J1-PDC line was cultured in 6I media, which includes all 6C/Colon 1B media plus 10 ng/mL human FGF-10 (PeproTech, cat. 100-26), 1 ng/mL human FGF-2 (PeproTech, cat. 100-18B), 1 µM prostaglandin E2 (Tocris Bioscience, cat. 2296), […] hydrocortisone (Sigma-Aldrich, cat. H4001), and […] bovine insulin (Sigma-Aldrich, cat. I6634). The K86415-001-R-J1-PDC line was cultured in 6D media, which includes all 6C/Colon 1B media components minus the L-WRN conditioned media. The 485176-168-R4-J1-PDC was cultured in PANC media, which includes all 6C/Colon 1B media plus 100 ng/mL human FGF-10 (PeproTech, cat. 100-26), 500 nM SB-431542 (Selleckchem, cat. S1067), and 10 nM gastrin (Tocris Bioscience, cat. 3006). […]

[1] = curve of first compound, second compound 0.0316 µM
[2] = curve of first compound, second compound 0.1 µM
[3] = curve of first compound, second compound 0.316 µM
[4] = curve of first compound, second compound 1 µM
[5] = curve of first compound, second compound 3.16 µM
[6] = curve of first compound, second compound 10 µM
[7] = second compound 0.0316 µM, first compound 0.00316 µM
[8] = second compound 0.0316 µM, first compound 0.01 µM
[9] = second compound 0.0316 µM, first compound 0.0316 µM
[10] = second compound 0.0316 µM, first compound 0.1 µM
[11] = second compound 0.0316 µM, first compound 0.316 µM
[12] = second compound 0.0316 µM, first compound 1 µM
[13] = second compound 0.1 µM, first compound 0.00316 µM
[14] = second compound 0.1 µM, first compound 0.01 µM
[15] = second compound 0.1 µM, first compound 0.0316 µM
[16] = second compound 0.1 µM, first compound 0.1 µM
[17] = second compound 0.1 µM, first compound 0.316 µM
[18] = second compound 0.1 µM, first compound 1 µM
[19] = second compound 0.316 µM, first compound 0.00316 µM
[20] = second compound 0.316 µM, first compound 0.01 µM
[21] = second compound 0.316 µM, first compound 0.0316 µM
[22] = second compound 0.316 µM, first compound 0.1 µM
[23] = second compound 0.316 µM, first compound 0.316 µM
[24] = second compound 0.316 µM, first compound 1 µM
[25] = second compound 1 µM, first compound 0.00316 µM
[26] = second compound 1 µM, first compound 0.01 µM
[27] = second compound 1 µM, first compound 0.0316 µM
[28] = second compound 1 µM, first compound 0.1 µM
[29] = second compound 1 µM, first compound 0.316 µM
[30] = second compound 1 µM, first compound 1 µM
[31] = second compound 3.16 µM, first compound 0.00316 µM
[32] = second compound 3.16 µM, first compound 0.01 µM
[33] = second compound 3.16 µM, first compound 0.0316 µM
[34] = second compound 3.16 µM, first compound 0.1 µM
[35] = second compound 3.16 µM, first compound 0.316 µM
[36] = second compound 3.16 µM, first compound 1 µM
[37] = second compound 10 µM, first compound 0.00316 µM
[38] = second compound 10 µM, first compound 0.01 µM
[39] = second compound 10 µM, first compound 0.0316 µM
[40] = second compound 10 µM, first compound 0.1 µM
[41] = second compound 10 µM, first compound 0.316 µM
[42] = second compound 10 µM, first compound 1 µM
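Wherever viability, T/C is given: spheroids exposed to agents for seven days before readout; 100% = DMSO vehicle control wells.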

SMILES: Cc1nc(N2CCC3(CC2)COC(C)C3N)c(CO)nc1Sc1ccnc(N)c1Cl (stereo not given)
viability, T/C (compound 0.0316 µM): 104% [middle of 4 runs] | viability, T/C (compound 0.1 µM): 103% [middle of 4 runs] | viability, T/C (compound 0.316 µM): 111% [middle of 4 runs] | viability, T/C (compound 1 µM): 112% [middle of 4 runs] | viability, T/C (compound 3.16 µM): 112% [middle of 4 runs] | viability, T/C (compound 10 µM): 108% [middle of 4 runs] | IC50 (curve of compound): > 10000 nM

SMILES: C=CC(=O)Nc1cc(Nc2nccc(-c3cn(C)c4ccccc34)n2)c(OC)cc1N(C)CCN(C)C + C#Cc1c(F)ccc2cc(O)cc(-c3ncc4c(N5CC6CCC(C5)N6)nc(OCC56CCCN5CC(F)C6)nc4c3F)c12
IC50 [1]: > 1000 nM | IC50 [2]: > 1000 nM | IC50 [3]: > 1000 nM | IC50 [4]: > 1000 nM | IC50 [5]: > 1000 nM | IC50 [6]: > 1000 nM | viability, T/C [7]: 117% | viability, T/C [8]: 110% | viability, T/C [9]: 109% | viability, T/C [10]: 103% | viability, T/C [11]: 110% | viability, T/C [12]: 95.6% | viability, T/C [13]: 103% | viability, T/C [14]: 107% | viability, T/C [15]: 106% | viability, T/C [16]: 100% | viability, T/C [17]: 113% | viability, T/C [18]: 103% | viability, T/C [19]: 111% | viability, T/C [20]: 106% | viability, T/C [21]: 106% | viability, T/C [22]: 107% | viability, T/C [23]: 111% | viability, T/C [24]: 104% | viability, T/C [25]: 114% | viability, T/C [26]: 113% | viability, T/C [27]: 119% | viability, T/C [28]: 122% | viability, T/C [29]: 105% | viability, T/C [30]: 115% | viability, T/C [31]: 115% | viability, T/C [32]: 116% | viability, T/C [33]: 114% | viability, T/C [34]: 117% | viability, T/C [35]: 112% | viability, T/C [36]: 114% | viability, T/C [37]: 123% | viability, T/C [38]: 118% | viability, T/C [39]: 110% | viability, T/C [40]: 128% | viability, T/C [41]: 120% | viability, T/C [42]: 93.7%

SMILES: O=C(c1ccc(F)c(F)c1Nc1ccc(I)cc1F)N1CC(O)([C@@H]2CCCCN2)C1 + C#Cc1c(F)ccc2cc(O)cc(-c3ncc4c(N5CC6CCC(C5)N6)nc(OCC56CCCN5CC(F)C6)nc4c3F)c12
IC50 [1]: 8.97 nM | IC50 [2]: 10.1 nM | IC50 [3]: 12.1 nM | IC50 [4]: 10.9 nM | IC50 [5]: 10.8 nM | IC50 [6]: 9.02 nM | viability, T/C [7]: 84.7% | viability, T/C [8]: 46.4% | viability, T/C [9]: 7.85% | viability, T/C [10]: 3.11% | viability, T/C [11]: 3.11% | viability, T/C [12]: 1.68% | viability, T/C [13]: 70.8% | viability, T/C [14]: 50.3% | viability, T/C [15]: 7.58% | viability, T/C [16]: 3.19% | viability, T/C [17]: 2.68% | viability, T/C [18]: 1.61% | viability, T/C [19]: 77.1% | viability, T/C [20]: 58.5% | viability, T/C [21]: 6.51% | viability, T/C [22]: 5.25% | viability, T/C [23]: 2.94% | viability, T/C [24]: 1.38% | viability, T/C [25]: 83.2% | viability, T/C [26]: 53.4% | viability, T/C [27]: 7.2% | viability, T/C [28]: 3.22% | viability, T/C [29]: 2.12% | viability, T/C [30]: 2.67% | viability, T/C [31]: 77.6% | viability, T/C [32]: 53.1% | viability, T/C [33]: 8.19% | viability, T/C [34]: 3.45% | viability, T/C [35]: 2.09% | viability, T/C [36]: 3.3% | viability, T/C [37]: 91.4% | viability, T/C [38]: 46% | viability, T/C [39]: 8.65% | viability, T/C [40]: 6.24% | viability, T/C [41]: 2.33% | viability, T/C [42]: 2.35%

The next lines start with results.

IC50 (curve of compound): < 31.6 nM
SMILES: CC(=O)OC12COC1CC(O)C1(C)C(=O)C(O)C3=C(C)C(OC(=O)C(O)C(NC(=O)OC(C)(C)C)c4ccccc4)CC(O)(C(OC(=O)c4ccccc4)C21)C3(C)C (stereo not given)
viability, T/C (compound 0.0316 µM): 27.8% [middle of 4 runs] | viability, T/C (compound 0.1 µM): 33.9% [middle of 4 runs] | viability, T/C (compound 0.316 µM): 37.7% [middle of 4 runs] | viability, T/C (compound 1 µM): 49.9% [middle of 4 runs] | viability, T/C (compound 3.16 µM): 73.4% [middle of 4 runs] | viability, T/C (compound 10 µM): 64.2% [middle of 4 runs]

IC50 (curve of compound): > 10000 nM
SMILES: NC1c2ccccc2OC12CCN(c1cnc3c(N4CCCc5ncccc54)n[nH]c3n1)CC2 (stereo not given)
viability, T/C (compound 0.0316 µM): 114% [middle of 4 runs] | viability, T/C (compound 0.1 µM): 106% [middle of 4 runs] | viability, T/C (compound 0.316 µM): 115% [middle of 4 runs] | viability, T/C (compound 1 µM): 112% [middle of 4 runs] | viability, T/C (compound 3.16 µM): 114% (2×) and 102% and 108% | viability, T/C (compound 10 µM): 105% (2×) and 86.2% and 87.2%

— PubChem BioAssay AID2060895 (Molecular Pharmacology Branch, DTP, NCI, 2025)
